Patent publication US11447466B2, “Substituted indole compounds useful as inhibitors of TLR7/8/9” (BRISTOL-MYERS SQUIBB COMPANY, priority 2017, dated 2022)
pIC50: −log10 of the molar value.

Key:
human TLR7 = target: T1, human TLR7 (Homo sapiens, UniProt Q9NYK1); assay: TLR7 inhibition reporter assay (HEK-Blue SEAP reporter, gardiquimod stimulation); format: cell-based; conditions: HEK-Blue cells overexpressing human TLR7, SEAP reporter, gardiquimod 7.5 μM, 22 hour incubation
T1 construct: host or cells: HEK-Blue cells
T1 sequence (Q9NYK1 27-1049): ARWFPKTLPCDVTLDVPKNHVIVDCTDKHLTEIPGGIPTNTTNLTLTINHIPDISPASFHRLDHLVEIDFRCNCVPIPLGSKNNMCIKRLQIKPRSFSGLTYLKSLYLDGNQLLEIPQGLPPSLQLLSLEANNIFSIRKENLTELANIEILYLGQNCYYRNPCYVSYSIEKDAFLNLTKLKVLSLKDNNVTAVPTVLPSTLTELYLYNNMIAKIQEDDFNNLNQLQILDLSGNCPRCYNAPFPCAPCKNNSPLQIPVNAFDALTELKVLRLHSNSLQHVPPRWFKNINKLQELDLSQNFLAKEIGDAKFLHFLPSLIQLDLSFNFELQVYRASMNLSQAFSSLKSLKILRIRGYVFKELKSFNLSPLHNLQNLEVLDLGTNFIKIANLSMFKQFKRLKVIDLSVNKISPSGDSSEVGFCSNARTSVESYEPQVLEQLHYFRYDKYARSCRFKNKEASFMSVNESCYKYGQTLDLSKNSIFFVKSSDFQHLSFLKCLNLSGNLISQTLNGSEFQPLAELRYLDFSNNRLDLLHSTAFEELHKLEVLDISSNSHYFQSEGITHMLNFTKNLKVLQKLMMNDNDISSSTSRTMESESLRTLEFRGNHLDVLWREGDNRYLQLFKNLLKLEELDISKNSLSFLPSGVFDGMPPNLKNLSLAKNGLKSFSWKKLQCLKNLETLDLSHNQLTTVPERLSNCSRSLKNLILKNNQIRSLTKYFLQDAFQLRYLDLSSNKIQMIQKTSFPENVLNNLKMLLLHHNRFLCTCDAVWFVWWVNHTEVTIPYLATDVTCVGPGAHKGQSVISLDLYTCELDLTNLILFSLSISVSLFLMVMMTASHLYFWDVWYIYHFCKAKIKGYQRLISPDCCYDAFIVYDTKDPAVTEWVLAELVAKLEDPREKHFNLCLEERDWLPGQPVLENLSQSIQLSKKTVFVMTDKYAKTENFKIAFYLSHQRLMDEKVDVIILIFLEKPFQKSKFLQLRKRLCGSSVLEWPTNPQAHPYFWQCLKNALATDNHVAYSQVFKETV
Description: (§1) TLR7/8/9 Inhibition Reporter Assays
(§2) HEK-Blue™-cells (Invivogen) overexpressing human TLR7, TLR8 or TLR9 receptors were used for screening inhibitors of these receptors using an inducible SEAP (secreted embryonic alkaline phosphatase) reporter gene under the control of the IFN-β minimal promoter fused to five NF-κB and AP-1-binding sites. Briefly, cells are seeded into Greiner 384 well plates (15000 cells per well for TLR7, 20,000 for TLR8 and 25,000 for TLR9) and then treated with test compounds in DMSO to yield a final dose response concentration range of 0.05 nM-50 μM. After a 30 minute compound pre-treatment at room temperature, the cells are then stimulated with a TLR7 ligand (gardiquimod at a final concentration of 7.5 μM), TLR8 ligand (R848 at a final concentration of 15.9 μM) or TLR9 ligand (ODN2006 at a final concentration of 5 nM) to activate NF-κB and AP-1 which induce the production of SEAP. After a 22 hour incubation at 37° C., 5% CO2, SEAP levels are determined with the addition of HEK-Blue™ Detection reagent (Invivogen), a cell culture medium that allows for detection of SEAP, according to manufacturer's specifications. The percent inhibition is determined as the % reduction in the HEK-Blue signal present in wells treated with agonist plus DMSO alone compared to wells treated with a known inhibitor.

human TLR8 = target: T2, human TLR8 (Homo sapiens, UniProt Q9NR97); assay: TLR8 inhibition reporter assay (HEK-Blue SEAP reporter, R848 stimulation); format: cell-based; conditions: HEK-Blue cells overexpressing human TLR8, SEAP reporter, R848 15.9 μM, 22 hour incubation
T2 construct: host or cells: HEK-Blue cells
T2 sequence (Q9NR97 27-1041): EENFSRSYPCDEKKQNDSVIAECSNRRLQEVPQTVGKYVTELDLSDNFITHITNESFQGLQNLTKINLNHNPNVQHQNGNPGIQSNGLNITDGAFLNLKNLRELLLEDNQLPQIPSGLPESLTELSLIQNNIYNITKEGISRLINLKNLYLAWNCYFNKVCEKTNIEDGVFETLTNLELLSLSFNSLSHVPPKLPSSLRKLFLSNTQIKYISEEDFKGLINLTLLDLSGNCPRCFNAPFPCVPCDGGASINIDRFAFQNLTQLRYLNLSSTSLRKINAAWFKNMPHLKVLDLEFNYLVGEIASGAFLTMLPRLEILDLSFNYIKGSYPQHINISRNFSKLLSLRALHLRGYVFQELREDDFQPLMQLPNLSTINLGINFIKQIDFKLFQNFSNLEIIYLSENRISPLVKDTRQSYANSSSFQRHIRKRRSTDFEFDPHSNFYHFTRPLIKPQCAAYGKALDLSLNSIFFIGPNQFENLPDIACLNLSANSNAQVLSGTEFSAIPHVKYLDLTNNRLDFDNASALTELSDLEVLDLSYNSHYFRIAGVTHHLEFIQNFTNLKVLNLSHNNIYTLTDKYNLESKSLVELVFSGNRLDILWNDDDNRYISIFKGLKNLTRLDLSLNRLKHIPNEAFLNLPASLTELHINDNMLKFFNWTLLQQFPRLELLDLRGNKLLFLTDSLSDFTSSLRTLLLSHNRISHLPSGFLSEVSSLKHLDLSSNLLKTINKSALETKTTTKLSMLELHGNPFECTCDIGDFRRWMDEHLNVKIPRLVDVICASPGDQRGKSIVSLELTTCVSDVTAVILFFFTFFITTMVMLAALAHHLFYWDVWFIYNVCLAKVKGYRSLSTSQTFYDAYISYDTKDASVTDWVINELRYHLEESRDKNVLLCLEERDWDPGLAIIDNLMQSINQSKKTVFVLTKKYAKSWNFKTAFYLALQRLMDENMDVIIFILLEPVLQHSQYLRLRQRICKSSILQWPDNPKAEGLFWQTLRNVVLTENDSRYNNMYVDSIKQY
Description: as §1, §2

SMILES	pIC50 (human TLR7)	pIC50 (human TLR8)
Cc1cc(-c2[nH]c3ccc(C4CCN(CC(C)(C)O)CC4)cc3c2C(C)C)cn(Cc2ccccc2)c1=O [Example 329, 1-benzyl-5-(5-(1-(2-hydroxy-2-methylpropyl)piperidin-4-yl)-3-isopropyl-1H-indol-2-yl)-3-methylpyridin-2(1H)-one]	7.80	7.49
CC(C)c1c(-c2cc(-c3ccccc3)c(=O)n(C)c2)[nH]c2ccc(C3CCNCC3)cc12 [Example 53, 5-(3-isopropyl-5-(piperidin-4-yl)-1H-indol-2-yl)-1-methyl-3-phenylpyridin-2(1H)-one]	7.94	7.99
Cc1cc(-c2[nH]c3ccc(C4CCN(C(=O)[C@H]5C[C@H](O)CN5)CC4)cc3c2C(C)C)cn(C)c1=O [Example 292, 5-(5-(1-((2R,4S)-4-hydroxypyrrolidine-2-carbonyl)piperidin-4-yl)-3-isopropyl-1H-indol-2-yl)-1,3-dimethylpyridin-2(1H)-one]	8.14	7.39
Cc1cc(-c2[nH]c3ccc(C4CCN(C(=O)[C@@H]5C[C@@H](O)CN5)CC4)cc3c2C(C)C)cn(C)c1=O [Example 290, 5-(5-(1-((2S,4R)-4-hydroxypyrrolidine-2-carbonyl)piperidin-4-yl)-3-isopropyl-1H-indol-2-yl)-1,3-dimethylpyridin-2(1H)-one]	8.08	
Cc1cc(-c2[nH]c3ccc(C4CCN(C(=O)C5(N)CC5)CC4)cc3c2C(C)C)cn(C)c1=O [Example 272, 5-(5-(1-(1-aminocyclopropanecarbonyl)piperidin-4-yl)-3-isopropyl-1H-indol-2-yl)-1,3-dimethylpyridin-2(1H)-one]	8.10	7.28
CCCN1CCC(c2ccc3[nH]c(-c4cc(-c5cncnc5)c(=O)n(C)c4)c(C(C)C)c3c2)CC1 [Example 249, 5-(3-isopropyl-5-(1-propylpiperidin-4-yl)-1H-indol-2-yl)-1-methyl-3-(pyrimidin-5-yl)pyridin-2(1H)-one]	7.85	8.96
CCn1nc(-c2[nH]c3ccc(C4CCNCC4)cc3c2C(C)C)c(C)c(C)c1=O [Example 27, 2-ethyl-6-(3-isopropyl-5-(piperidin-4-yl)-1H-indol-2-yl)-4,5-dimethylpyridazin-3(2H)-one]	6.78	7.73
Cc1cc(-c2[nH]c3ccc(C4CCN(C5CCC(C(C)C)CC5)CC4)cc3c2C(C)C)cn(C)c1=O (stereo not shown) [Example 233, 5-(3-isopropyl-5-(1-(4-isopropylcyclohexyl)piperidin-4-yl)-1H-indol-2-yl)-1,3-dimethylpyridin-2(1H)-one]	7.24	7.01
Cc1cc(-c2[nH]c3ccc(C4CCN(C(=O)[C@@H]5C[C@@H](O)CN5)CC4)cc3c2C(C)C)cn(C)c1=O [Example 293, 5-(5-(1-((2S,4R)-4-hydroxypyrrolidine-2-carbonyl)piperidin-4-yl)-3-isopropyl-1H-indol-2-yl)-1,3-dimethylpyridin-2(1H)-one]	7.67	
Cc1cc(-c2[nH]c3ccc(C4CCN(C(=O)[C@H]5C[C@H](O)CN5)CC4)cc3c2C(C)C)cn(C)c1=O [Example 288, 5-(5-(1-((2R,4S)-4-hydroxypyrrolidine-2-carbonyl)piperidin-4-yl)-3-isopropyl-1H-indol-2-yl)-1,3-dimethylpyridin-2(1H)-one]	7.76	7.21
Cc1cc(-c2[nH]c3ccc(C4CCN(C5CCC(C(C)C)CC5)CC4)cc3c2C(C)C)cn(C)c1=O (stereo not shown) [Example 234, 5-(3-isopropyl-5-(1-(4-isopropylcyclohexyl)piperidin-4-yl)-1H-indol-2-yl)-1,3-dimethylpyridin-2(1H)-one]	7.40	7.28
Cc1cc(-c2[nH]c3ccc(C4CCN(CCC(C(F)(F)F)C(F)(F)F)CC4)cc3c2C(C)C)cn(C)c1=O [Example 88, 5-(3-isopropyl-5-(1-(4,4,4-trifluoro-3-(trifluoromethyl)butyl)piperidin-4-yl)-1H-indol-2-yl)-1,3-dimethylpyridin-2(1H)-one]	7.17	7.27
